# Source: patent US20030032003A1, “IN VIVO SELECTION” (priority 2000, published 2003)
# Where two headings read alike, the source gives them in different places. Marks after values point to notes of the source that are not given here.
# Experiments:
# [1] = tested on: Hprt+/+ mice, recipients of Hprt−/− bone marrow and non-recipient controls
# Protocol: Recipient Hprt+/+ female mice were irradiated with 950 cGy of X-rays 24 hours before transplantation.
# Briefly, bone marrow was flushed from femora and tibiae with 2 ml of Dulbecco's modified Eagle medium (D-MEM) supplemented with 10% of FBS and 100 units/ml penicillin, 100 mg/ml streptomycin. The isolated cells from the donor mouse were washed with PBS and injected into the tail vein of female Hprt +/+ recipients.
# 6TG (2-amino-6-mercaptopurine Sigma) was suspended in sterile PBS with a final concentration of 0.5 mg/ml prior to each i.p. application. All mice, recipients of bone marrow transplant and non-recipient controls, were treated with the same 6TG dose regimen. All mice were treated one hour after transplantation of recipients with an initial dose of 6TG at 10 mg/kg body weight. After 7 days the animals were treated with 4 doses of 5 mg/kg b.w. in 48 hrs intervals and followed with 5 days of recovery period.
# This regimen was repeated 2 times with doses 5 mg/kg and 3 times with doses of 10 mg/kg with 5 days recovery periods in between treatments. Another control group of transplanted animals was treated with the same amount of sterile PBS.
# Hprt +/+ mice = experiment: Histopathological analysis of mouse tissues after 6TG
# [2] = tested on: embryos of C57BL6/J Hprt −/− females mated with wildtype Hprt +/o males; format: in vivo; conditions: for Offspring ♀ (Hprt +/−, sensitive) / Offspring ♂ (Hprt −/o, resistant): three i.p. injections of 20 mg/kg in 24 hrs intervals during gestation
# Protocol: The animals were housed in standard plastic microisolator cages with wood-chip bedding. The room was maintained at 22° C. and 70% humidity and the light cycle was 12 hours. Water and mouse diet No:5015 (PMI Feeds, Inc., St. Louis, Mo.) was supplied ad libitum. All housing and treatment protocols were reviewed and approved by an institutional Animal Care Committee.
# Hprt −/− females (5-8 weeks old) were mated with wildtype males and the presence of vaginal plugs was examined daily. The day when a plug appeared was considered to be day 1 of pregnancy and the male was separated. The pregnant dams were treated with three i.p. injections of 6-thioguanine (20 mg/kg) or in control matings with saline starting […] in 24 hrs intervals. Pregnant mice were examined daily until term. The gender of offsprings was first determined 24 days after delivery and confirmed at the time of weaning (4 weeks of age).
# An experiment was designed to investigate whether one could select against Hprt wildtype embryos with 6-thioguanine. Female mice C57BL6/J Hprt −/− were mated with wildtype Hprt +/o males. Since the Hprt gene is located on the X chromosome the resulting male offspring will be Hprt −/o and therefore resistant to 6-thioguanine (6TG). On the other hand, female offspring will be Hprt +/− and thus sensitive to 6TG. 6TG (Sigma) was injected i.p. in three subsequential doses (20 mg/kg each) in 24 hrs intervals starting on the third day of gestation. Mice were screened two times daily for possible toxic effects.
# [3] = Hprt +/+, 6TG lethal 50-720 mg/kg, 7 mice
# [4] = Hprt +/+, 6TG sublethal 25 mg/kg, 2 mice
structure (smiles),measurement,setting,value
"Nc1nc(S)c2[nH]cnc2n1 [6TG, 2-amino-6-merkaptopurine]",toxic effect of 6TG,[1]; 6TG treated bone marrow (BM) recipients,did not show any apparent toxic effect
same,body weight decrease,"[1]; 6TG treated bone marrow recipients, first week after transplantation",about 10%
same,Body weight,"[1]; Bone marrow recipients +6TG, week 1",91
same,Body weight,"[1]; Bone marrow recipients +6TG, week 2",89
same,Body weight,"[1]; Bone marrow recipients +6TG, week 3",90
same,Body weight,"[1]; Bone marrow recipients +6TG, week 4",90
same,Body weight,"[1]; Bone marrow recipients +6TG, week 5",88
same,Body weight,"[1]; Bone marrow recipients +6TG, week 6",93
same,Body weight,"[1]; Controls (non-recipients) +6TG, week 1",99
same,Body weight,"[1]; Controls (non-recipients) +6TG, week 2",100
same,Body weight,"[1]; Controls (non-recipients) +6TG, week 3, these mice died",86*
same,Body weight,"[1]; Controls (non-recipients) +6TG, week 4, these mice died",79*
same,loss of body weight,"[1]; non-recipient controls, during 3 weeks of 6TG treatment",25%
same,"Bone marrow Depletion, severity grade","Hprt +/+ mice; Hprt +/+, 25 mg/kg i.p.",3.5 ± 0.5
same,"Bone marrow Depletion, severity grade","Hprt +/+ mice; Hprt +/+, 50 mg/kg i.p.",4
same,"Bone marrow Necrosis, severity grade","Hprt +/+ mice; Hprt +/+, 50 mg/kg i.p.",3
same,"Gastric epithelium Atrophy, severity grade","Hprt +/+ mice; Hprt +/+, 50 mg/kg i.p.",2
same,"Gastric epithelium Necrosis, severity grade","Hprt +/+ mice; Hprt +/+, 50 mg/kg i.p.",1
same,"Intestinal epithelium Atrophy, severity grade","Hprt +/+ mice; Hprt +/+, 50 mg/kg i.p.",2
same,"Intestinal epithelium Necrosis, severity grade","Hprt +/+ mice; Hprt +/+, 50 mg/kg i.p.",1
same,"Liver Atrophy necrosis, severity grade","Hprt +/+ mice; Hprt +/+, 50 mg/kg i.p.",3
same,"Spleen Lymphoid depletion, severity grade","Hprt +/+ mice; Hprt +/+, 50 mg/kg i.p.",1
same,"Bone marrow Depletion, severity grade","Hprt +/+ mice; Hprt +/+, 100 mg/kg i.p.",4
same,"Bone marrow Necrosis, severity grade","Hprt +/+ mice; Hprt +/+, 100 mg/kg i.p.",3
same,"Gastric epithelium Atrophy, severity grade","Hprt +/+ mice; Hprt +/+, 100 mg/kg i.p.",3
same,"Gastric epithelium Necrosis, severity grade","Hprt +/+ mice; Hprt +/+, 100 mg/kg i.p.",3
same,"Intestinal epithelium Atrophy, severity grade","Hprt +/+ mice; Hprt +/+, 100 mg/kg i.p.",3
same,"Intestinal epithelium Necrosis, severity grade","Hprt +/+ mice; Hprt +/+, 100 mg/kg i.p.",3
same,"Liver Atrophy necrosis, severity grade","Hprt +/+ mice; Hprt +/+, 100 mg/kg i.p.",2
same,"Spleen Lymphoid depletion, severity grade","Hprt +/+ mice; Hprt +/+, 100 mg/kg i.p.",1
same,"Spleen Necrosis, severity grade","Hprt +/+ mice; Hprt +/+, 100 mg/kg i.p.",2
same,"Bone marrow Depletion, severity grade","Hprt +/+ mice; Hprt +/+, 150 mg/kg i.p.",4
same,"Bone marrow Necrosis, severity grade","Hprt +/+ mice; Hprt +/+, 150 mg/kg i.p.",4
same,"Gastric epithelium Atrophy, severity grade","Hprt +/+ mice; Hprt +/+, 150 mg/kg i.p.",1
same,"Gastric epithelium Necrosis, severity grade","Hprt +/+ mice; Hprt +/+, 150 mg/kg i.p.",1
same,"Intestinal epithelium Atrophy, severity grade","Hprt +/+ mice; Hprt +/+, 150 mg/kg i.p.",1
same,"Intestinal epithelium Necrosis, severity grade","Hprt +/+ mice; Hprt +/+, 150 mg/kg i.p.",1
same,"Liver Atrophy necrosis, severity grade","Hprt +/+ mice; Hprt +/+, 150 mg/kg i.p.",2
same,"Liver Centrilobular hypertrophy, severity grade","Hprt +/+ mice; Hprt +/+, 150 mg/kg i.p.",2
same,"Spleen Lymphoid depletion, severity grade","Hprt +/+ mice; Hprt +/+, 150 mg/kg i.p.",2
same,"Spleen Necrosis, severity grade","Hprt +/+ mice; Hprt +/+, 150 mg/kg i.p.",2
same,"Bone marrow Depletion, severity grade","Hprt +/+ mice; Hprt +/+, 225 mg/kg i.p.",3
same,"Bone marrow Necrosis, severity grade","Hprt +/+ mice; Hprt +/+, 225 mg/kg i.p.",3
same,"Gastric epithelium Atrophy, severity grade","Hprt +/+ mice; Hprt +/+, 225 mg/kg i.p.",1
same,"Gastric epithelium Necrosis, severity grade","Hprt +/+ mice; Hprt +/+, 225 mg/kg i.p.",1
same,"Intestinal epithelium Atrophy, severity grade","Hprt +/+ mice; Hprt +/+, 225 mg/kg i.p.",1
same,"Intestinal epithelium Necrosis, severity grade","Hprt +/+ mice; Hprt +/+, 225 mg/kg i.p.",1
same,"Liver Atrophy necrosis, severity grade","Hprt +/+ mice; Hprt +/+, 225 mg/kg i.p.",2
same,"Liver Centrilobular hypertrophy, severity grade","Hprt +/+ mice; Hprt +/+, 225 mg/kg i.p.",1
same,"Liver Fatty change, severity grade","Hprt +/+ mice; Hprt +/+, 225 mg/kg i.p.",1
same,"Spleen Lymphoid depletion, severity grade","Hprt +/+ mice; Hprt +/+, 225 mg/kg i.p.",3
same,"Spleen Necrosis, severity grade","Hprt +/+ mice; Hprt +/+, 225 mg/kg i.p.",4
same,"Bone marrow Depletion, severity grade","Hprt +/+ mice; Hprt +/+, 338 mg/kg i.p.",4
same,"Bone marrow Necrosis, severity grade","Hprt +/+ mice; Hprt +/+, 338 mg/kg i.p.",3
same,"Gastric epithelium Atrophy, severity grade","Hprt +/+ mice; Hprt +/+, 338 mg/kg i.p.",3
same,"Gastric epithelium Necrosis, severity grade","Hprt +/+ mice; Hprt +/+, 338 mg/kg i.p.",3
same,"Intestinal epithelium Atrophy, severity grade","Hprt +/+ mice; Hprt +/+, 338 mg/kg i.p.",3
same,"Intestinal epithelium Necrosis, severity grade","Hprt +/+ mice; Hprt +/+, 338 mg/kg i.p.",3
same,"Liver Atrophy necrosis, severity grade","Hprt +/+ mice; Hprt +/+, 338 mg/kg i.p.",1
same,"Liver Centrilobular hypertrophy, severity grade","Hprt +/+ mice; Hprt +/+, 338 mg/kg i.p.",2
same,"Liver Fatty change, severity grade","Hprt +/+ mice; Hprt +/+, 338 mg/kg i.p.",2
same,"Spleen Lymphoid depletion, severity grade","Hprt +/+ mice; Hprt +/+, 338 mg/kg i.p.",2
same,"Spleen Necrosis, severity grade","Hprt +/+ mice; Hprt +/+, 338 mg/kg i.p.",1
same,"Bone marrow Depletion, severity grade","Hprt +/+ mice; Hprt +/+, 507 mg/kg i.p.",3
same,"Bone marrow Necrosis, severity grade","Hprt +/+ mice; Hprt +/+, 507 mg/kg i.p.",4
same,"Gastric epithelium Atrophy, severity grade","Hprt +/+ mice; Hprt +/+, 507 mg/kg i.p.",1
same,"Gastric epithelium Necrosis, severity grade","Hprt +/+ mice; Hprt +/+, 507 mg/kg i.p.",1
same,"Intestinal epithelium Atrophy, severity grade","Hprt +/+ mice; Hprt +/+, 507 mg/kg i.p.",1
same,"Intestinal epithelium Necrosis, severity grade","Hprt +/+ mice; Hprt +/+, 507 mg/kg i.p.",1
same,"Liver Atrophy necrosis, severity grade","Hprt +/+ mice; Hprt +/+, 507 mg/kg i.p.",1
same,"Liver Centrilobular hypertrophy, severity grade","Hprt +/+ mice; Hprt +/+, 507 mg/kg i.p.",1
same,"Liver Fatty change, severity grade","Hprt +/+ mice; Hprt +/+, 507 mg/kg i.p.",2
same,"Spleen Lymphoid depletion, severity grade","Hprt +/+ mice; Hprt +/+, 507 mg/kg i.p.",1
same,"Spleen Necrosis, severity grade","Hprt +/+ mice; Hprt +/+, 507 mg/kg i.p.",2
same,"Bone marrow Depletion, severity grade","Hprt +/+ mice; Hprt +/+, 720 mg/kg i.p.",4
same,"Bone marrow Necrosis, severity grade","Hprt +/+ mice; Hprt +/+, 720 mg/kg i.p.",4
same,"Gastric epithelium Atrophy, severity grade","Hprt +/+ mice; Hprt +/+, 720 mg/kg i.p.",1
same,"Gastric epithelium Necrosis, severity grade","Hprt +/+ mice; Hprt +/+, 720 mg/kg i.p.",1
same,"Intestinal epithelium Atrophy, severity grade","Hprt +/+ mice; Hprt +/+, 720 mg/kg i.p.",1
same,"Intestinal epithelium Necrosis, severity grade","Hprt +/+ mice; Hprt +/+, 720 mg/kg i.p.",1
same,"Liver Atrophy necrosis, severity grade","Hprt +/+ mice; Hprt +/+, 720 mg/kg i.p.",2
same,"Liver Centrilobular hypertrophy, severity grade","Hprt +/+ mice; Hprt +/+, 720 mg/kg i.p.",1
same,"Spleen Lymphoid depletion, severity grade","Hprt +/+ mice; Hprt +/+, 720 mg/kg i.p.",3
same,"Spleen Necrosis, severity grade","Hprt +/+ mice; Hprt +/+, 720 mg/kg i.p.",3
same,"Bone marrow Depletion, average of lesion severity grade",Hprt +/+ mice; [3],3.7 ± 0.5
same,"Bone marrow Necrosis, average of lesion severity grade",Hprt +/+ mice; [3],3.4 ± 0.5
same,"Gastric epithelium Atrophy, average of lesion severity grade",Hprt +/+ mice; [3],1.7 ± 0.9
same,"Gastric epithelium Necrosis, average of lesion severity grade",Hprt +/+ mice; [3],1.6 ± 0.9
same,"Intestinal epithelium Atrophy, average of lesion severity grade",Hprt +/+ mice; [3],1.7 ± 0.9
same,"Intestinal epithelium Necrosis, average of lesion severity grade",Hprt +/+ mice; [3],1.6 ± 1.0
same,"Liver Atrophy necrosis, average of lesion severity grade",Hprt +/+ mice; [3],1.9 ± 0.7
same,"Liver Centrilobular hypertrophy, average of lesion severity grade",Hprt +/+ mice; [3],1.0 ± 0.8
same,"Liver Fatty change, average of lesion severity grade",Hprt +/+ mice; [3],0.7 ± 0.9
same,"Spleen Lymphoid depletion, average of lesion severity grade",Hprt +/+ mice; [3],1.9 ± 0.9
same,"Spleen Necrosis, average of lesion severity grade",Hprt +/+ mice; [3],2.0 ± 1.3
same,"Bone marrow Depletion, average of lesion severity grade",Hprt +/+ mice; [4],3.5 ± 0.5
same,"Bone marrow Necrosis, average of lesion severity grade",Hprt +/+ mice; [4],0.5 ± 0.5
same,"Liver Atrophy necrosis, average of lesion severity grade",Hprt +/+ mice; [4],2.5 ± 0.5
same,starting dose of liver lesions (necrosis and atrophy of hepatocytes),Hprt +/+ mice; Hprt wildtype mice,25 mg/kg
same,lowest dose with liver centrilobular hypertrophy,Hprt +/+ mice; wildtype mice,150 mg/kg
same,lowest dose with liver fatty change,Hprt +/+ mice; wildtype mice,225 mg/kg
same,starting dose of atrophy and/or necrosis of gastrointestinal epithelium,Hprt +/+ mice; wildtype mice,50 mg/kg
same,"Offspring ♀ (Hprt +/−, sensitive)",[2]; Dam 1T,0
same,"Offspring ♂ (Hprt −/o, resistant)",[2]; Dam 1T,4
same,"Offspring ♀ (Hprt +/−, sensitive)",[2]; Dam 2T,0
same,"Offspring ♂ (Hprt −/o, resistant)",[2]; Dam 2T,2
same,toxicity to the dams,"[2]; Hprt −/− dams, three doses 20 mg/kg i.p.",did not cause any apparent toxic symptoms or discomfort to the dams
same,male offspring delivered,[2]; two 6TG treated dams together,6
